Test results from patent US20040147531A1, “Amidine derivatives for treating amyloidosis” (priority 2001, published 2004).

Experiments:
Parameters in all cases: key: “+” = active; “−” = inactive; “pr” = promoting
Aβ (1-40) = biological target: T1, Aβ (1-40) (Homo sapiens, UniProt P05067); assay: thioflavin T fluorescent assay (ThT assay) for fibrillogenesis; type: biochemical; settings: Aβ (1-40) 20 μM, 5 μM Thioflavin T, pH 7.40, 37° C.; inhibition of fibrillogenesis
T1 construct: Aβ peptide: Aβ (1-40) 95% purity (American Peptide Company, Inc, Sunnyvale, Calif. USA); purchased American Peptide Company, Inc, Sunnyvale, Calif; USA
T1 sequence (P05067 672-711 limits assumed): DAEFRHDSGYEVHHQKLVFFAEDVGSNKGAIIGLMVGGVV
Excerpt: Test compounds were purchased from commercial sources or synthesized and screened by thioflavin T fluorescent assay (“ThT assay”). Alternatively, one could screen test compounds by circular dichroism (“CD”), electron microscopy (“EM”), or mass spectroscopy (“MS”) assays. The MS assay gives data on the ability of compounds to bind to an amyloid protein, whereas the ThT, EM, and CD assays give data on inhibition of fibrillogenesis. The thioflavin T fluorescent assay for fibrillogenesis is based on the principle that the fluorescent dye, thioflavin T, binds specifically to fibrillar, but not to unaggregate Aβ peptide (LeVine III, H., 1993, Protein Science 2:404-410). Upon binding, thioflavin T develops a characteristic fluorescence (Naiki, H., et al., 1996, Lab. Invest. 74: 374-383) which can be easily detected. The dye is believed to interact with the stacked cross-β pleated sheets, the common structural motif of all amyloid (LeVine III, H., 1995, Amyloid: Int. J. Exp. Clin Invest. 2:1.6). Thioflavin T is widely used to assay the effect of compounds on fibrillogenesis of Aβ peptide and other amyloid proteins (Bronfman, P. C., et al., 1995, Neuroscience Lett. 218:201-203). In this assay, test compounds are incubated with a solution of Aβ (1-40) (20 μM) or IAPP (10 μM) containing 5 μM Thioflavin T, in 0.02M Tris/0.02M acetate/0.15M NaCl/0.005% azide/pH 7.40 at 37° C. in sealed 384 well microplates. Readings (ex 430 nm/em 485 nm) are taken at various time intervals with a microplate fluorescence reader. An increase in fluorescence signifies the appearance of amyloid or intermediates in the production of amyloid, as illustrated in the Figures (in general, a compound which inhibits fibrillogenesis produces lower fluorescence in the assay because the fluorescence of ThT is greater when bound to fibrils). Protocol: Aβ peptide: Aβ (1-40) 95% purity (American Peptide Company, Inc, Sunnyvale, Calif. USA) is disaggregated in trifluoroacetic acid and filtered through a […] filter, (Whatman Anotop 25 plus, 0.02 μm, Catalogue no. 6809 4102) in hexafluoroisopropanol (HFIP). Solutions of Aβ (1-40) or IAPP at 600 μm in HFIP are stored at −80° C. Assay mixture: The mixture is prepared as two solutions which are combined upon addition to the 384 well microplate (Corning Costar cat. 3705). i) Solution A consists of test compounds in 0.02M Tris/0.02M acetate/0.15M NaCl/0.01% azide at pH 7.40 or buffer alone (control), ii) Solution B consists of Aβ (1-40) 40 μM or IAPP 20 μM, Thioflavin T […] in 0.02M Tris/0.02M acetate/0.15M NaCl at pH 7.40. This solution is prepared by drying the Aβ peptide under nitrogen and then resuspending this in 0.04M Tris base with 15 minutes sonication. An equal volume of 0.04M acetic acid containing 0.3 M NaCl is added and the solution is adjusted to 7.40±0.02. A small volume of 20 mM Thioflavin T is added to the solution to give a final 5 μM concentration of Thioflavin T. iii) The microplate is loaded with 40 μL of solution A followed by 40 μL of solution B which gives a final 20 μM Aβ (1-40) or 10 μM IAPP, 5 μM Thioflavin T, and a given concentration of test compound in 0.02M Tris/0.02M acetate/0.15M NaCl/0.005% azide, pH 7.40. The plate is sealed and loaded into the microplate fluorescence reader. Fluorescence measurement data analysis: The HTS-7000 Bio Assay Reader, Perkin Elmer, is used to perform kinetic runs of about 1 day. Readings were taken at 15 minute intervals, with one minute shaking before each read. Bandpass filters used were: excitation 430 nm, emission […].

Aβ40 = biological target: T2, Aβ40 (Homo sapiens, UniProt P05067); assay: mass spectroscopy (MS) assay, binding to Aβ; settings: 200 μM test compound, 20 μM solubilized Aβ40, pH 7.4; ability to bind to Aβ
T2 construct: 200 μM of a test compound and 20 μM of solubilized Aβ40
T2 sequence (P05067 672-711 limits assumed): as above
Protocol: Test compounds were purchased from commercial sources or synthesized and screened by thioflavin T fluorescent assay (“ThT assay”). Alternatively, one could screen test compounds by circular dichroism (“CD”), electron microscopy (“EM”), or mass spectroscopy (“MS”) assays.
And in the mass spectroscopy (“MS”) assay, samples were prepared as aqueous solutions containing 20% ethanol, 200 μM of a test compound and 20 μM of solubilized Aβ40. The pH value of each sample was adjusted to 7.4 (±0.2) by addition of 0.1% aqueous sodium hydroxide. The solutions were then analyzed by electrospray ionization mass spectroscopy using a Waters ZQ 4000 mass spectrometer. Samples were introduced by direct infusion at a flow-rate of 25 μL/min within 2 hr. after sample preparation. The source temperature was kept at 70° C. and the cone voltage was 20 V for all the analysis. Data were processed using Masslynx 3.5 software.

Aβ [1] = biological target: T3, Aβ (Homo sapiens, UniProt P05067); assay: circular dichroism (CD) assay, inhibition of fibrillogenesis; type: biochemical; settings: soluble Aβ, 37° C., 190-240 nm
T3 construct: Aβ peptide: Aβ (1-40) 95% purity (American Peptide Company, Inc, Sunnyvale, Calif. USA)
T3 sequence (P05067 672-711 limits assumed): as above
Excerpt: (§1) Test compounds were purchased from commercial sources or synthesized and screened by thioflavin T fluorescent assay (“ThT assay”). Alternatively, one could screen test compounds by circular dichroism (“CD”), electron microscopy (“EM”), or mass spectroscopy (“MS”) assays. The MS assay gives data on the ability of compounds to bind to an amyloid protein, whereas the ThT, EM, and CD assays give data on inhibition of fibrillogenesis.
In the circular dichroism (“CD”) assay, samples were transferred to 0.1-cm path-length quartz cuvettes and CD scans were taken using a Jasco J-715 spectropolarimeter. Readings were taken at 37° C., between 190 and 240 nm, with a resolution of 0.1 nm and a bandwidth of 1 nm. […]

Aβ [2] = biological target: T3, Aβ; assay: electron microscopy (EM) assay, inhibition of fibrillogenesis; type: biochemical; settings: soluble Aβ
Excerpt: as §1
Similarly, in the electron microscopy (“EM”) assay, each sample was sonicated for 1 min to disrupt large clumps before testing. The sample (5-μL aliquot) was placed on freshly cleaved mica and allowed to air dry. The mica was placed in a Balzers High-vacuum, Freeze-Etch Unit (model 301), shadowed with platinum (30° angle), and coated with a carbon film. The replica was removed from the mica by flotation and transferred onto a 300-mesh copper grid. Samples were examined using a Joel 2000 FX transmission electron microscope. […]

Row | SMILES | ThT Assay (Aβ (1-40)) | MS Assay (Aβ40) | CD (Aβ [1]) | EM (Aβ [2])
1 | Cl.N=C(N)c1ccccc1 [Compound 46] | − |  | − | −
2 | c1cc(COc2ccc(C3=NCCN3)cc2)ccc1COc1ccc(C2=NCCN2)cc1 [Compound 27] | pr |  |  | 
3 | c1cc(COc2ccc(C3=NCCN3)cc2)cc(COc2ccc(C3=NCCN3)cc2)c1 [Compound 25] | + |  |  | +
4 | c1cc(C2=NCCN2)ccc1OCCOCCOc1ccc(C2=NCCN2)cc1 [Compound 35] | + | + |  | −
5 | N=C(N)c1ccc2nc(-c3ccc(CCc4ccc(-c5nc6ccc(C(=N)N)cc6[nH]5)s4)cc3)[nH]c2c1 [Compound 116] |  | + | − | +

Further lines, results first:

Row | ThT Assay (Aβ (1-40)) | MS Assay (Aβ40) | CD (Aβ [1]) | EM (Aβ [2]) | SMILES
6 | + | + |  |  | N=C(N)c1ccc(OCCCCOc2ccc(C(=N)N)cc2)cc1 [Compound 5]
7 | + | + |  |  | N=C(N)CCCOc1ccc(C(=N)N)cc1 [Compound 41]
8 | + |  | + | + | N=C(N)c1ccc(-c2cc3ccc(C(=N)N)cc3[nH]2)cc1 [Compound 28]
9 | + | + |  | − | N=C(N)c1ccc(OCCC(O)COc2ccc(C(=N)N)cc2)cc1 (stereo not shown) [Compound 31]
10 | + |  |  | − | N=C(N)c1ccc(OCc2ccc(COc3ccc(C(=N)N)cc3)cc2)cc1 [Compound 26]
11 | + | + |  | + | N=C(N)c1ccc(OCc2cccc(COc3ccc(C(=N)N)cc3)c2)cc1 [Compound 24]
12 | + | + | + | − | N=C(N)c1ccc(OCOc2ccc(C(=N)N)cc2)cc1 [Compound 9]
